The results in this text go back to ChEMBL document CHEMBL3988442, “University of Dundee, Small-Polar-MMV Screening Library” (2021).

Sequence of Tryptophan--tRNA ligase (P9WFT3 whole entry): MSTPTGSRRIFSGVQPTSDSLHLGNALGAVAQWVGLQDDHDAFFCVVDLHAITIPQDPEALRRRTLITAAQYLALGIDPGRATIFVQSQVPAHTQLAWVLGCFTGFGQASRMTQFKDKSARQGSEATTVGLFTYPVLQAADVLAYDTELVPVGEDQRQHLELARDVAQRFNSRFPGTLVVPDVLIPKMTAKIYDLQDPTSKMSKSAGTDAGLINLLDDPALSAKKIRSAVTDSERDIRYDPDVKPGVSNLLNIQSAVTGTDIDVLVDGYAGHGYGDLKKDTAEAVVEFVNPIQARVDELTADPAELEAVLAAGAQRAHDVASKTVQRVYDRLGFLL

This test concerns the target Tryptophan--tRNA ligase (Mycobacterium tuberculosis (strain ATCC 25618 / H37Rv), UniProt P9WFT3). Description: Biochemical assay for Mt-TrpRS. The class given is functional.
As usually defined, the IC50 is the midpoint of a concentration-inhibition curve. The low end stands for higher potency, the high end for lower potency. Take `CS(=O)(=O)c1snnc1C1CCN(Cc2cccnc2)CC1`: the IC50 is over 195 µM.
For `CC(C)C(=O)N1CCC(C)(c2cc(O)[nH]n2)CC1`, the IC50 is over 195 µM.
Compound `CCCS(=O)(=O)N1CC(=O)N(Cc2cccc(OC)c2OC)CC(O)C1` (stereo unspecified) showed an IC50 of over 195 µM.
Consider `CN(Cc1cccnc1)Cc1cncc2c1CCN(c1ccccn1)C2`, for which the IC50 was over 195 µM.
The same measure for `COCCN1C(=O)CO[C@H]2CN(Cc3ccccc3Cl)C[C@@H]21`: over 195 µM; for `c1cnnc(N2CCCC(NCc3nc(-c4ccco4)no3)C2)c1` (stereo unspecified): over 195 µM; for `O=C1CCC(=O)N1c1nn(Cc2c(F)cccc2Cl)cc1Cl`: over 195 µM.
Compound `CS(=O)(=O)N1CCCC(Cc2cncc(Br)c2)CC1` (stereo unspecified) had an IC50 of over 195 µM.
`Nc1nccc(C2CCN(CC3CC3)C2)n1` (stereo unspecified) showed an IC50 of over 195 µM.
`COC(=O)c1ccc(CNCc2ccn(C)n2)cc1` gave an IC50 of over 195 µM.
`Cc1cc(CN2CC[C@@H]3O[C@@H](c4nnc(C)o4)C[C@H]3C2)no1` showed an IC50 of over 195 µM.
The same measure for `COCC(=O)N1CCC(C(=O)c2cc(C)cnc2N)CC1`: over 195 µM; for `NC(=O)CN1CCCC(Cc2ccc(N)nn2)C1` (stereo unspecified): over 195 µM; for `COCCc1noc(CN(C)C2CCCN(c3cccnn3)C2)n1` (stereo unspecified): over 195 µM.
Consider `COCCN1CCN(Cc2cnc(C(C)C)nc2)CC1`, for which the IC50 is over 195 µM.
For the compound `O=C(O)C1(Cc2cc(-c3ccc(F)cc3)no2)CCOCC1`, the IC50 was over 195 µM.
To `CNC(=O)C1(C)CN(c2nc(C)cc(C)n2)CCO1` (stereo unspecified) belongs over 195 µM.
The same measure for `CCc1ccc(CN2C[C@H](OC)[C@H]3COC[C@H]32)o1`: over 195 µM.
As to `CC(C)c1ncc(CN2CCC(CO)C2)cn1` (stereo unspecified), the 50% inhibitory concentration (IC50) is over 195 µM.
`O=C1CCC(=O)N1c1nn(Cc2cccc(F)c2)cc1Cl`: the IC50 was over 195 µM.
The compound `CCOCc1cnc2n1CCN(C(=O)c1ccccc1)C2C` (stereo unspecified) gave an IC50 of over 195 µM.
Regarding `O=C(N[C@@H]1CCC[C@@H](N2CCCC2)[C@@H]1O)c1cc2ccccc2[nH]1`, the IC50 was over 195 µM.
With `COCCN1CCC12CCN(C(=O)c1ccc(C)nc1)C2` (stereo unspecified), the half-inhibitory concentration (IC50) was over 195 µM.
`COc1ccc(CN2C[C@@H](O)[C@](O)(CNC(=O)c3ccccn3)C2)cc1` gave an IC50 of over 195 µM.
`CO[C@H]1CN(Cc2cc(F)ccc2F)CC[C@@]12CCCO2` gave a 50% inhibitory concentration (IC50) of over 195 µM.
To `O=C(Cn1cccnc1=O)NC(Cc1ccsc1)c1nccs1` (stereo unspecified) belongs over 195 µM; to `CC(=O)Nc1nc(C2CCN(C(=O)c3cncs3)CC2)cs1`, over 195 µM; to `COCCN1CC=C(c2cccc(OC)c2)CC1`, over 195 µM.
The same measure for `C[C@@]1(O)CCN(Cc2cc[nH]n2)C[C@H]1Oc1cccc(F)c1`: over 195 µM; for `CNC(=O)C1(CCCc2ccncc2)CCN1` (stereo unspecified): over 195 µM; for `N#CCCN1CC(O)CN(C(=O)c2cccc(C(F)(F)F)c2)CC1=O` (stereo unspecified): over 195 µM.
Regarding `COCCC(=O)N1CCCC1c1csc(Nc2ccccn2)n1` (stereo unspecified), the IC50 is over 195 µM.
The same measure for `COc1cc(NC2CCCNC2)cc(OC)c1` (stereo unspecified): over 195 µM; for `CC(=O)N1CCC(C(=O)N2CCC2c2nc(-c3ccc(C)s3)no2)CC1` (stereo unspecified): over 195 µM; for `O=C(c1cnccn1)N1CCC2(CCCN(Cc3ccoc3)C2)C1` (stereo unspecified): over 195 µM.
The same measure for `Cc1ccc2c(c1)[C@@H](CC(=O)N(C)C)CCO2`: over 195 µM; for `O=C1NCC[C@]12CN(Cc1ccco1)C[C@H]2c1ccccc1`: over 195 µM; for `CCn1cc(S(=O)(=O)NC(=O)CCc2c[nH]c3ccccc23)cn1`: over 195 µM.
`Cc1csc(CCNC(=O)NC(C)Cn2cccn2)n1` (stereo unspecified): the IC50 is over 195 µM.
On to `CC(=O)N1CCCC1c1cccc(Cc2ccccc2Cl)n1` (stereo unspecified), for which the concentration for half-maximal inhibition (IC50) is over 195 µM.
`O=C([C@H]1COC[C@H]2CN(c3ccncn3)C[C@H]21)N1CCCC1` had an IC50 of over 195 µM.
For the compound `Cc1ccc(C(=O)NS(=O)(=O)c2ccccc2F)c(=O)[nH]1`, the IC50 was over 195 µM.
Regarding `CC(NCc1c(C(C)C)nn(C)c1N1CCOCC1)C(=O)N(C)C` (stereo unspecified), the IC50 is over 195 µM.
Compound `Cc1nc(CCC(=O)NCC(N)=O)cc(C2CCNCC2)n1` had an IC50 of over 195 µM.
To `Cc1c(Br)cc2c(c1C)OCC(N(C)C)C2=O` (stereo unspecified) belongs over 195 µM.
Turning to `Cn1cnnc1C1CCN(C(=O)c2cc3c(s2)CCCC3)CC1`, the IC50 was over 195 µM.
The compound `CCOc1ccc(N(C)Cc2nnc(C)o2)cc1` showed an IC50 of over 195 µM.
In turn, `Cc1nc(Nc2nncs2)cc(C2CCCN2C)n1` (stereo unspecified) had an IC50 of over 195 µM.
In turn, `Cn1cc(CCN2CCOC(CNc3cccnn3)C2)cn1` (stereo unspecified) had an IC50 of over 195 µM.
The same measure for `CCC(O)CN1CCN(C(=O)c2cc3ccccc3n2CC)CC1` (stereo unspecified): over 195 µM; for `N#Cc1cn[nH]c1NCc1cc(Br)ccc1O`: 31.4 µM; for `Nc1nccnc1C1CN(C(=O)c2ccnnc2)CCO1` (stereo unspecified): over 195 µM.
Consider `O=C(O)Cc1nc2nccc(-c3ccc(F)cc3)n2n1`, for which the IC50 was over 195 µM.
To `Cc1nn(C)cc1C(=O)N1CCC(CSc2ccccc2)C1` (stereo unspecified) belongs over 195 µM; to `COc1ccc(CNc2cnn(CC(F)F)c2)cc1`, over 195 µM; to `Cn1cc(C(=O)NCc2cncc3c2CCN(c2ccccn2)C3)cn1`, over 195 µM.
The same measure for `Cc1ccnc(N2CCC(C(N)=O)CC2)n1`: over 195 µM; for `CNc1cc(-c2ccncc2)ncn1`: over 195 µM.
Turning to `COc1cccc(CNc2cnn(CC(F)F)c2)c1`, the IC50 was over 195 µM.
The same measure for `CC(C(=O)NCc1ccc(N2CCCC2)nc1)S(C)(=O)=O` (stereo unspecified): over 195 µM; for `COc1ccc(-c2cc(C3CCCNC3)ccn2)cc1` (stereo unspecified): over 195 µM.
In the case of `COc1cccc(CN2CC[C@H](NC(C)=O)[C@@H](O)CC2)c1F`, the IC50 is over 195 µM.
`O=C(NC[C@H]1CC[C@H](c2nnc(-c3cccnc3)o2)CC1)C1CC1` gave an IC50 of over 195 µM.
As for `Cc1nc(C2CCCN2CC(=O)N(C)Cc2ccsc2)no1` (stereo unspecified), the IC50 was over 195 µM.
`Cc1cc(-c2cnn(CCNC(=O)Cc3ccccn3)c2C2CC2)on1` gave an IC50 of over 195 µM.
To `Cn1ccc(C(=O)N2CCCC(c3cc(O)n(C)n3)C2)n1` (stereo unspecified) belongs over 195 µM; to `CCCn1cc(CN2CCCC2c2nccc(CN(C)C)n2)cn1` (stereo unspecified), over 195 µM; to `Cc1cn(Cc2ccccc2)nc1N`, over 195 µM.
Turning to `O=C(c1cccnn1)N1C[C@@H]2CC[C@H](Oc3cccc(F)c3)[C@@H]2C1`, the concentration for half-maximal inhibition (IC50) is over 195 µM.
`Cc1cc(CN2CCN(C(=O)NCc3ccco3)CC2)no1`: the IC50 was over 195 µM.
To `CCN(CC)C1COc2ccc(Br)cc2C1=O` (stereo unspecified) belongs over 195 µM; to `COc1ccc(C(=O)Nc2cccc(SC)c2)c(OC)n1`, over 195 µM; to `OC(CNc1ccc(Cl)cn1)CN1CCOCC1` (stereo unspecified), over 195 µM.
`CS(=O)(=O)CC(=O)N1C[C@H]2CCC[C@@]2(COc2ccccn2)C1` gave an IC50 of over 195 µM.
As to `O=C(CCn1ccnc1)N1C[C@@H](O)[C@H](Oc2cccc(F)c2)C1`, the IC50 was over 195 µM.
With `CCN1CCC2(CC1)CC(CC(=O)N(C)C)c1ccc(F)cc12` (stereo unspecified), the IC50 was over 195 µM.
As for `CS(=O)(=O)NC[C@]1(O)CCN(C(=O)Cc2cccs2)C[C@H]1O`, the IC50 was over 195 µM.
As for `CN1CCCC(CCCc2cccnc2)(C(N)=O)C1` (stereo unspecified), the IC50 was over 195 µM.
To `CN1CCN(Cc2cn3c(n2)CN(Cc2ccncc2)CC3)CC1` belongs over 195 µM; to `CNC(=O)Nc1cnc2cc(Cl)ccc2c1O`, over 195 µM; to `Cc1nc(C)c(C(=O)NCCNC(=O)Cc2ccc(F)cc2)s1`, over 195 µM.
Compound `Cn1nccc1CCC(=O)N1CCCC(Cc2cccnc2)C1` (stereo unspecified) gave an IC50 of over 195 µM.
In turn, `CCOCc1cnc2n1CCN(C(=O)c1ccoc1C)C2C` (stereo unspecified) gave an IC50 of over 195 µM.
The compound `CC1CCN(CC(O)CNc2ccccn2)CC1` (stereo unspecified) had an IC50 of over 195 µM.
`O=C(CCc1cccnc1)N1CCC(c2cnccn2)CC1` had an IC50 of over 195 µM.
Compound `CN(C)CCn1c([C@H]2CCCO2)cc2cccnc21` showed an IC50 of over 195 µM.
The same measure for `CCS(=O)(=O)N1CCc2c(COCc3ccncc3)cncc2C1`: over 195 µM; for `CC(=O)NC(=O)C1(CCCc2ccncc2)CCN1` (stereo unspecified): over 195 µM; for `CS(=O)(=O)NCc1cn2c(n1)CN(Cc1cccnc1)CC2`: over 195 µM.
In the case of `O=C1NC(=O)c2c3c(nc(O)c21)CCCC3`, the IC50 was over 195 µM.
The compound `Cc1cc(C)n(CC2CCCN2C(=O)c2c(C)noc2C)n1` (stereo unspecified) gave an IC50 of over 195 µM.
Compound `Cc1cc(CNC(=O)N(Cc2ccc(F)cc2F)C2CC2)no1` had an IC50 of over 195 µM.
The compound `Cc1cc(N)cc(C2CN(Cc3cc[nH]n3)CCO2)n1` (stereo unspecified) had an IC50 of over 195 µM.
Compound `COc1cccc(CNCc2cccnc2)c1` showed an IC50 of over 195 µM.
`CN1CC(c2cc(O)nc(NCc3ccc(Cl)cc3)n2)CC1=O` (stereo unspecified) had an IC50 of over 195 µM.
`COCCNC(=O)c1ccccc1-n1cc(CN)cn1`: the IC50 is over 195 µM.
For the compound `Cc1cc(CN(C)CCC(O)c2ccccc2)no1` (stereo unspecified), the IC50 is over 195 µM.
`CCN(CC)Cc1ccc(C(=O)N2CCN(CC(C)O)CC2)o1` (stereo unspecified) had a 50% inhibitory concentration (IC50) of over 195 µM.
For the compound `CCOC(=O)COc1ccc(C(C)=O)c(O)c1`, the IC50 is over 195 µM.
To `O=C1CN(CC2CC2)Cc2nc(NCc3ccccc3)sc21` belongs over 195 µM.
The same measure for `O=C(O)C1(Cc2cccc(-c3ccc(F)cc3)c2)CCOCC1`: over 195 µM.
Take `CC(=O)NC[C@]1(O)CCN(C(=O)c2ccc(F)c(Cl)c2)C[C@H]1O`: the IC50 is over 195 µM.
The compound `Cn1c(=O)c2cc(C(=O)NCCOCC(F)(F)F)ccc2n(C)c1=O` had an IC50 of over 195 µM.
The same measure for `CSc1ncc(Cl)c(C(=O)NC(Cc2ccccc2)C(=O)O)n1` (stereo unspecified): over 195 µM; for `CNC(=O)COC1COC2(CCN(Cc3cccnc3)CC2)C1` (stereo unspecified): over 195 µM; for `COCCNc1nnc(-c2ccccn2)s1`: over 195 µM.
In turn, `c1cn(-c2cnc(C3CCNCC3)cn2)cn1` gave an IC50 of over 195 µM.
The same measure for `NC(=O)N1CCc2ncc(CNC(=O)CC3CC3)n2CC1`: over 195 µM; for `O=C(c1cccnc1Oc1ccc(Cl)cc1)N1CC[C@@H](O)C1`: over 195 µM.
`COc1ccccc1CN1CC(O)CN(S(=O)(=O)C(C)C)CC1=O` (stereo unspecified) gave an IC50 of over 195 µM.
In turn, `O=C(O)CCc1nc2nccc(-c3ccc(F)cc3)n2n1` had an IC50 of over 195 µM.
